According to PubChem BioAssay AID330 (DTP/NCI, 2004):
Where “and” joins values, the source holds several entries; their conditions need not be identical. Equal values may be shown once. Toxic doses and inconclusive results are not listed.

Test system: P388 leukemia ip, CD2F1 mice, survival T/C
Experiment: NCI In Vivo Anticancer Drug Screen. Data for tumor model P388 Leukemia (intraperitoneal) in CD2F1 (CDF1) mice
Conditions: endpoint: median survival time, higher = longer survival
Outline: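 Mice carrying the transplanted tumor received test compound or vehicle. Survival was recorded in each group, and the value is the treated-group measurement divided by that of the vehicle-treated control group.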

[1] = dose: 25.0 mg/kg/injection, schedule: Q01DX009 (ip), vehicle: saline
[2] = dose: 60.0 mg/kg/injection, schedule: Q01DX005 (ip), vehicle: saline with Tween-80
[3] = dose: 120.0 mg/kg/injection, schedule: Q01DX005 (ip), vehicle: saline with Tween-80
[4] = dose: 240.0 mg/kg/injection, schedule: Q01DX005 (ip), vehicle: saline with Tween-80
[5] = dose: 50.0 mg/kg/injection, schedule: Q01DX009 (ip), vehicle: saline with Tween-80
[6] = dose: 50.0 mg/kg/injection, schedule: Q01DX009 (ip), vehicle: saline

With `CN(C)CCOCN1COCC1(C)C` the T/C [1] was 123 % of control.

`CC1=C(C(=O)Nc2ccccc2C)C(c2ccco2)C(C(=O)Nc2ccccc2C)=C(C)N1` was tested, and the T/C [2] was 96 % of control, the T/C [3] was 94 % of control and the T/C [4] was 97 % of control.

`Cc1cc(C)c2c(c1)/C(=C/C(=O)c1ccccc1)C(=O)N2` was tested, and the T/C (dose: 50.0 mg/kg/injection, schedule: Q01DX009 (ip), vehicle: Klucel (hydroxypropylcellulose) (HPC)) was 100 % of control, the T/C (dose: 100.0 mg/kg/injection, schedule: Q01DX009 (ip), vehicle: Klucel (hydroxypropylcellulose) (HPC)) was 95 % of control and the T/C (dose: 200.0 mg/kg/injection, schedule: Q01DX009 (ip), vehicle: Klucel (hydroxypropylcellulose) (HPC)) was 100 % of control.

`COc1cc2c(cc1OC)C(c1ccccc1)ON(C)CC2` (stereo unspecified) was tested, and the T/C (dose: 50.0 mg/kg/injection, schedule: Q01DX005 (ip), vehicle: Klucel (hydroxypropylcellulose) (HPC)) was 100 % of control, the T/C (dose: 100.0 mg/kg/injection, schedule: Q01DX005 (ip), vehicle: Klucel (hydroxypropylcellulose) (HPC)) was 99 % of control and the T/C (dose: 200.0 mg/kg/injection, schedule: Q01DX005 (ip), vehicle: Klucel (hydroxypropylcellulose) (HPC)) was 104 % of control.

For `C=C1C(=O)C23C(OC(=O)CCCCCCCCCCCCC)C1CCC2C12COC3(O)C(O)C1C(C)(C)CCC2O` (stereo unspecified), the T/C (dose: 3.75 mg/kg/injection, schedule: Q01DX009 (ip), vehicle: saline with Tween-80) was 104 % of control, the T/C (dose: 7.5 mg/kg/injection, schedule: Q01DX009 (ip), vehicle: saline with Tween-80) was 109 % of control and the T/C (dose: 15.0 mg/kg/injection, schedule: Q01DX009 (ip), vehicle: saline with Tween-80) was 112 % of control.

In the case of `CCCCn1c(O)c(/C=C2/C=Nc3ccccc32)sc1=O`, the T/C [5] is reported as 95 % of control, the T/C (dose: 100.0 mg/kg/injection, schedule: Q01DX009 (ip), vehicle: saline with Tween-80) is reported as 95 % of control and the T/C (dose: 200.0 mg/kg/injection, schedule: Q01DX009 (ip), vehicle: saline with Tween-80) is reported as 97 % of control.

In the case of `O=C(C[n+]1ccccc1)c1ccccc1`, the T/C (dose: 12.5 mg/kg/injection, schedule: Q01DX009 (ip), vehicle: saline) is reported as 105 % of control, the T/C [1] is reported as 104 % of control and the T/C [6] is reported as 96 % of control.

With `COc1ccc(C(c2cc3c(cc2O)OCO3)N2CCOCC2)c(OC)c1` (stereo unspecified) the T/C (dose: 60.0 mg/kg/injection, schedule: Q01DX005 (ip), vehicle: Klucel (hydroxypropylcellulose) (HPC)) was 101 % of control, the T/C (dose: 120.0 mg/kg/injection, schedule: Q01DX005 (ip), vehicle: Klucel (hydroxypropylcellulose) (HPC)) was 99 % of control and the T/C (dose: 240.0 mg/kg/injection, schedule: Q01DX005 (ip), vehicle: Klucel (hydroxypropylcellulose) (HPC)) was 110 % of control.

In the case of `CC1(C)CC1(Cl)S(C)(=O)=O` (stereo unspecified), the T/C (dose: 100.0 mg/kg/injection, schedule: Q01DX001 (ip), vehicle: saline with Tween-80) is reported as 106 % of control, the T/C (dose: 200.0 mg/kg/injection, schedule: Q01DX001 (ip), vehicle: saline with Tween-80) is reported as 105 % of control and the T/C (dose: 400.0 mg/kg/injection, schedule: Q01DX001 (ip), vehicle: saline with Tween-80) is reported as 100 % of control.

In the case of `O=C(CSc1nc2ccccc2[nH]1)NCCO`, the T/C [2] is reported as 98 % of control, the T/C [3] is reported as 97 % of control and the T/C [4] is reported as 100 % of control.

With `CCOC(=O)CC1NCCc2ccccc21` (stereo unspecified) the T/C (dose: 25.0 mg/kg/injection, schedule: Q01DX005 (ip), vehicle: saline + alcohol) was 103 % of control, the T/C (dose: 50.0 mg/kg/injection, schedule: Q01DX005 (ip), vehicle: saline + alcohol) was 103 % of control and the T/C (dose: 100.0 mg/kg/injection, schedule: Q01DX005 (ip), vehicle: saline + alcohol) was 103 % of control. The T/C (dose: 200.0 mg/kg/injection, schedule: Q01DX005 (ip), vehicle: saline + alcohol) was 101 % of control.

In the case of `O=C(O)C(=O)O.O=C(O)C(=O)O.O=C(O)C(=O)O.[Ru]`, the T/C (dose: 12.5 mg/kg/injection, schedule: Q04DX003 (ip), vehicle: water) is reported as 110 % of control and 87 % of control.

`CCC(C(=O)O)C(=O)O.[NH-]CC1CCCC[N-]1.[Pt+2]` was tested, and the T/C (dose: 25.0 mg/kg/injection, schedule: Q01DX005 (ip), vehicle: saline) was 161 % of control, the T/C [1] was 161 % of control and the T/C (dose: 50.0 mg/kg/injection, schedule: Q01DX005 (ip), vehicle: saline) was 217 % of control. The T/C [5] was 202 % of control, the T/C [6] was 189 % of control and the T/C (dose: 100.0 mg/kg/injection, schedule: Q01DX005 (ip), vehicle: saline) was 243 % of control and 267 % of control. For the same compound, the T/C (dose: 100.0 mg/kg/injection, schedule: Q01DX009 (ip), vehicle: saline) was 252 % of control, the T/C (dose: 125.0 mg/kg/injection, schedule: Q01DX001 (ip), vehicle: saline) was 161 % of control and the T/C (dose: 250.0 mg/kg/injection, schedule: Q01DX001 (ip), vehicle: saline) was 191 % of control. The T/C (dose: 500.0 mg/kg/injection, schedule: Q01DX001 (ip), vehicle: saline) was 173 % of control and 198 % of control.

For `CCOCCC(N=NC(=S)NNC)c1ccccc1` (stereo unspecified), the T/C (dose: 100.0 mg/kg/injection, schedule: Q01DX001 (ip), vehicle: saline) was 100 % of control, the T/C (dose: 200.0 mg/kg/injection, schedule: Q01DX001 (ip), vehicle: saline) was 94 % of control and the T/C (dose: 400.0 mg/kg/injection, schedule: Q01DX001 (ip), vehicle: saline) was 93 % of control.
